Values quoted from earlier work, collected in US20090306452A1, “APPARATUS FOR TREATING A CONTAMINATED MEDIA WITH A SORBENT” (priority 2008, published 2009).

Conditions: log10 of concentration in octanol / concentration in water; examples of hydrophobic hazardous materials

Row | Compound | Log P
1 | c1ccc2c(c1)Oc1ccccc1O2 [dibenzo (1,4) dioxin] | about 4
2 | Clc1cc2oc3c(Cl)cc(Cl)c(Cl)c3c2c(Cl)c1Cl [1,2,3,6,8,9-hexachloro-dibenzofuran] | about 7
3 | Clc1cc(Cl)cc(C2(CC(Cl)(Cl)Cl)CO2)c1 (stereo not shown) [2-(3,5-dichlorophenyl)-2-(2,2,2-trichloroethyl) oxirane] | about 4
4 | hexafluoromethane | about 2
